In one test the target is CDK12/CycK (Homo sapiens, UniProt Q9NYV4). The experiment in a line: CDK12/CycK high ATP kinase assay (TR-FRET, 2 mM ATP). In kind it is biochemical. Conditions: 2 mM ATP (high ATP); median; read-out: CDK12/CyclinK, 2 mM ATP (high ATP), IC50-[mol/l] (median). The procedure, abridged: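 Read-out is TR-FRET (Eu-anti-rabbit IgG, anti-phospho-c-Myc Ser62 antibody, streptavidin-XL665) after EDTA stop. Reaction ran 60 min at 22 °C using 1 µM biotin-peptide and high ATP (2 mM) with roughly 0.75 nM recombinant CDK12/CycK, after 15 min compound pre-binding; normalised emission ratios yield IC50.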

Test [1] concerns BRCA1 mRNA expression in MDA-MB-231 cells. In words: qRT-PCR assay: BRCA1 mRNA expression in MDA-MB-231. Conditions: median, read-out: RTqPCR-MDA-MB-231, IC50, BRCA1 (median). It counts as cell-based, human. The essentials:
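Human breast cancer cells, 200,000/well, were treated with test agents for 24 h without interruption after a 24 h settling period. Gene expression came from qPCR on cDNA made from 600 ng RNA, relative to GAPDH.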
(Quantitative PCR measures a nucleic acid by following its amplification.)

In test [2] the test system is MDA-MB-231, human breast cancer cells. The experiment in a line: Proliferation assay MDA-MB-231 (crystal violet, 4 days). It counts as cell-based. The conditions noted are these: MDA-MB-231 cells, median, read-out: Prolif-MDA MB-231, IC50-[mol/l] (median). The procedure, abridged: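 Crystal violet proliferation read-out after 4 days of compound exposure (0.01-10 µmol/L; solvent 0.1% DMSO). Extinction at 595 nm, set between zero-point (0%) and vehicle (100%), fitted with 4 parameters to give IC50.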

Setting [3] is: Homo sapiens, MDA-MB-231, Inhibition of BRCA1 mRNA expression in MDA-MB-231 cells.

Where two headings read alike, the source gives them in different places.

CDK12/CycK, sequence (Q9NYV4 with tags, fused parts or gaps): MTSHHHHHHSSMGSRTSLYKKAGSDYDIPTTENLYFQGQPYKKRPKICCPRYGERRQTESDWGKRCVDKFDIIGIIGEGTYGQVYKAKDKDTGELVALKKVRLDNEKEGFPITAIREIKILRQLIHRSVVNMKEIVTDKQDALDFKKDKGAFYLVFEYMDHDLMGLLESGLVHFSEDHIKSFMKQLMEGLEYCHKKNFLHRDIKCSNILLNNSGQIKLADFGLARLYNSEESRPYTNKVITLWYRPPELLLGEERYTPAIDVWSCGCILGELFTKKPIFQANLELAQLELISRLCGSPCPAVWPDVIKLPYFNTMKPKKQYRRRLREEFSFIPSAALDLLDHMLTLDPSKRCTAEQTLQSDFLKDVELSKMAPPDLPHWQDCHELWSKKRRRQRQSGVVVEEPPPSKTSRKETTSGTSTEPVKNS
CDK12/CycK, sequence (O75909 1-300 partner limits assumed): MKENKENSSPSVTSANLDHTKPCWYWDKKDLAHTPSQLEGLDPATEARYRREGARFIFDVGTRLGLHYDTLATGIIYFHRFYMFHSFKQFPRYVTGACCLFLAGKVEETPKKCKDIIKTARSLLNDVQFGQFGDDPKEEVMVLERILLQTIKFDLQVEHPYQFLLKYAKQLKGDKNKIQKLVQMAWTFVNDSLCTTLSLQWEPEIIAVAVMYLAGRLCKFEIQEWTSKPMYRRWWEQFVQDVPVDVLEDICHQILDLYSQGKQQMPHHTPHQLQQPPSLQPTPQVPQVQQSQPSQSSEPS

On to `Fc1c(Cl)ccc2[nH]c(CNc3nc(N4CC5CCC(C4)N5)nc4c(C5CC5)cnn34)nc12` [Example 379, N-[(5-chloro-4-fluoro-1H-benzimidazol-2-yl)methyl]-8-cyclopropyl-2-(3,8-diazabicyclo[3.2.1]octan-3-yl)pyrazolo[1,5-a][1,3,5]triazin-4-amine], for which the IC50 on CDK12/CycK was 528 nM; in test [1] (setting [3]), 2.36 nM; in test [2] (Homo sapiens, MDA-MB-231, 96 h), 2.92 nM.
On to `CN1CCN(c2nc(NCc3nc4cc(OC(F)(F)F)ccc4[nH]3)n3ncc(Br)c3n2)CC1` [Example 377, 8-bromo-2-(4-methylpiperazin-1-yl)-N-{[5-(trifluoromethoxy)-1H-benzimidazol-2-yl]methyl}pyrazolo[1,5-a][1,3,5]triazin-4-amine], for which the IC50 on CDK12/CycK was determined as 5090 nM; in test [2] (Homo sapiens, MDA-MB-231, 96 h), 116 nM.
Regarding `Cc1ccnc2[nH]c(CNc3nc(N4CCN(C)CC4)nc4c(C(C)C)cnn34)nc12` [Example 32, N-[(7-methyl-3H-imidazo[4,5-b]pyridin-2-yl)methyl]-2-(4-methylpiperazin-1-yl)-8-(propan-2-yl)pyrazolo[1,5-a][1,3,5]triazin-4-amine], at CDK12/CycK, the IC50 is 18500 nM.
As for `CN1CCC(Oc2nc(NCc3nc4ccccc4[nH]3)n3ncc(Br)c3n2)CC1` [Example 389, N-[(1H-benzimidazol-2-yl)methyl]-8-bromo-2-[(1-methylpiperidin-4-yl)oxy]pyrazolo[1,5-a][1,3,5]triazin-4-amine], the IC50 on CDK12/CycK was greater than 20000 nM; in test [2] (Homo sapiens, MDA-MB-231, 96 h), 332 nM.
As to `CN(CC(C)(C)O)c1nc(NCc2nc3c(F)c(Cl)ccc3[nH]2)n2ncc(C3CC3)c2n1` [Example 387, 1-[(4-{[(5-chloro-4-fluoro-1H-benzimidazol-2-yl)methyl]amino}-8-cyclopropylpyrazolo[1,5-a][1,3,5]triazin-2-yl)(methyl)amino]-2-methylpropan-2-ol], the IC50 was 233 nM on CDK12/CycK; 5.56 nM in test [1] (setting [3]); 4.57 nM in test [2] (Homo sapiens, MDA-MB-231, 96 h).
`C[C@H]1CN(C)CCN1c1nc(NCc2nc3c(F)cccc3[nH]2)n2ncc(C(F)(F)F)c2n1` [Example 388, 2-[(2S)-2,4-dimethylpiperazin-1-yl]-N-[(4-fluoro-1H-benzimidazol-2-yl)methyl]-8-(trifluoromethyl)pyrazolo[1,5-a][1,3,5]triazin-4-amine]: the IC50 on CDK12/CycK was determined as 6840 nM; in test [1] (setting [3]), 40 nM; in test [2] (Homo sapiens, MDA-MB-231, 96 h), 30.2 nM.
Regarding `CC[C@H](COC)Nc1nc(NCc2nc3ccccc3[nH]2)n2ncc(Br)c2n1` [Example 369, N4-[(1H-benzimidazol-2-yl)methyl]-8-bromo-N2-[(2R)-1-methoxybutan-2-yl]pyrazolo[1,5-a][1,3,5]triazine-2,4-diamine], the IC50 on CDK12/CycK is greater than 20000 nM; in test [2] (Homo sapiens, MDA-MB-231, 96 h), 297 nM.
Turning to `Cc1cc2nc(CNc3nc(N(C)CC(C)(C)O)nc4c(C5CC5)cnn34)[nH]c2cc1C` [Example 321, 1-[(8-cyclopropyl-4-{[(5,6-dimethyl-1H-benzimidazol-2-yl)methyl]amino}pyrazolo[1,5-a][1,3,5]triazin-2-yl)(methyl)amino]-2-methylpropan-2-ol], the IC50 on CDK12/CycK stood at 416 nM; in test [1] (setting [3]), 1.3 nM; in test [2] (Homo sapiens, MDA-MB-231, 96 h) it was 2.45 nM.
With `CCNc1nc(NCc2nc(-c3ccc(C)cc3)c[nH]2)n2ncc(Br)c2n1` [Example 26, 8-bromo-N^2-ethyl-N^4-{[4-(4-methylphenyl)-1H-imidazol-2-yl]methyl}pyrazolo[1,5-a][1,3,5]triazine-2,4-diamine], the values for the IC50 (at CDK12/CycK; in test [1] (setting [3])) were 3210 nM and 74.4 nM, respectively.
In the case of `Brc1cnn2c(NCc3nc4ccccc4[nH]3)nc(N3C[C@H]4CC[C@@H]3CO4)nc12` (single isomer, unassigned; enantiomer 2) [Example 391, N-[(1H-benzimidazol-2-yl)methyl]-8-bromo-2-{[1R or S-(1R*,4R*)]-2-oxa-5-azabicyclo[2.2.2]octan-5-yl}pyrazolo[1,5-a][1,3,5]triazin-4-amine (Enantiomer 2)], the IC50 at CDK12/CycK was 6700 nM; in test [1] (Inhibition of BRCA1 mRNA expression in MDA-MB-231 cells), 3.77 nM; in test [2] it was 26.1 nM.
For `CN1CCCN(c2nc(NCc3nc4ccccc4[nH]3)n3ncc(Br)c3n2)CC1` [Example 390, N-[(1H-benzimidazol-2-yl)methyl]-8-bromo-2-(4-methyl-1,4-diazepan-1-yl)pyrazolo[1,5-a][1,3,5]triazin-4-amine], the IC50 was greater than 20000 nM at CDK12/CycK and 176 nM in test [2] (Homo sapiens, MDA-MB-231, 96 h).
`Fc1cccc2[nH]c(CNc3nc(N4CCOCC4)nc4c(Cl)cnn34)nc12` [Example 361, 8-chloro-N-[(4-fluoro-1H-benzimidazol-2-yl)methyl]-2-(morpholin-4-yl)pyrazolo[1,5-a][1,3,5]triazin-4-amine]: the IC50 at CDK12/CycK was 1430 nM; in test [1] (setting [3]) it was 9.02 nM; in test [2] (Homo sapiens, MDA-MB-231, 96 h) it was 23.2 nM.
`Cc1[nH]c(CNc2nc(N3CCOCC3)nc3c(Br)cnn23)nc1-c1ccccc1` [Example 27, 8-bromo-N-[(5-methyl-4-phenyl-1H-imidazol-2-yl)methyl]-2-(morpholin-4-yl)pyrazolo[1,5-a][1,3,5]triazin-4-amine]: the IC50 at CDK12/CycK worked out at 3480 nM; in test [1] (setting [3]), 165 nM.
In the case of `Fc1cc2nc(CNc3nc(N4CC5CCC(C4)N5)nc4c(C5CC5)cnn34)[nH]c2cc1F` [Example 325, 8-cyclopropyl-2-(3,8-diazabicyclo[3.2.1]octan-3-yl)-N-[(5,6-difluoro-1H-benzimidazol-2-yl)methyl]pyrazolo[1,5-a][1,5]triazin-4-amine], the IC50 at CDK12/CycK amounted to 3550 nM; in test [1] (setting [3]), 3.91 nM; in test [2] (Homo sapiens, MDA-MB-231, 96 h), 3.22 nM.
The matching figures for `Fc1c(Cl)ccc2[nH]c(CNc3nc(N4CCOCC4)nc4c(C5CC5)cnn34)nc12` [Example 370, N-[(5-chloro-4-fluoro-1H-benzimidazol-2-yl)methyl]-8-cyclopropyl-2-(morpholin-4-yl)pyrazolo[1,5-a][1,3,5]triazin-4-amine]: 169 nM, 5.63 nM and 7.18 nM.
As for `CN(CC(C)(C)O)c1nc(NCc2nc3cc(OC(F)(F)F)ccc3[nH]2)n2ncc(Br)c2n1` [Example 378, 1-{[8-bromo-4-({[5-(trifluoromethoxy)-1H-benzimidazol-2-yl]methyl}amino)pyrazolo[1,5-a][1,3,5]triazin-2-yl](methyl)amino}-2-methylpropan-2-ol], the IC50 stood at 440 nM on CDK12/CycK and 96.4 nM in test [2] (Homo sapiens, MDA-MB-231, 96 h).
For the molecule `CC[C@H](CO)Nc1nc(NCc2nc3ccccc3[nH]2)n2ncc(Br)c2n1` [Example 368, (2R)-2-[(4-{[(1H-benzimidazol-2-yl)methyl]amino}-8-bromopyrazolo[1,5-a][1,3,5]triazin-2-yl)amino]butan-1-ol], the IC50 was 4840 nM on CDK12/CycK and 173 nM in test [2] (Homo sapiens, MDA-MB-231, 96 h).
The matching figures for `CN(c1nc(NCc2nc3ccccc3[nH]2)n2ncc(Br)c2n1)[C@H]1C[C@H](O)C1` [Example 365, trans-3-[(4-{[(1H-benzimidazol-2-yl)methyl]amino}-8-bromopyrazolo[1,5-a][1,3,5]triazin-2-yl)(methyl)amino]cyclobutan-1-ol]: 5850 nM and 118 nM.
The matching figures for `FC(F)(F)Oc1cccc2[nH]c(CNc3nc(N4CCOCC4)nc4c(Br)cnn34)nc12` [Example 375, 8-bromo-2-(morpholin-4-yl)-N-{[4-(trifluoromethoxy)-1H-benzimidazol-2-yl]methyl}pyrazolo[1,5-a][1,3,5]triazin-4-amine]: 4560 nM and 142 nM.
The matching figures for `CC[C@@H](CO)Nc1nc(NCc2nc3ccccc3[nH]2)n2ncc(Br)c2n1` [Example 367, (2S)-2-[(4-{[(1H-benzimidazol-2-yl)methyl]amino}-8-bromopyrazolo[1,5-a][1,3,5]triazin-2-yl)amino]butan-1-ol]: 2930 nM and 84.1 nM.
Take `FC(F)(F)Oc1cccc2[nH]c(CNc3nc(N4C[C@H]5CC[C@@H](C4)N5)nc4c(Br)cnn34)nc12` [Example 381, 8-bromo-2-[(1R,5S)-3,8-diazabicyclo[3.2.1]octan-3-yl]-N-{[4-(trifluoromethoxy)-1H-benzimidazol-2-yl]methyl}pyrazolo[1,5-a][1,3,5]triazin-4-amine]: the IC50 on CDK12/CycK turned out to be 5910 nM; in test [2] (Homo sapiens, MDA-MB-231, 96 h), 43.5 nM.
In the case of `CC(C)c1cnn2c(NCc3ncc(-c4ccccc4)[nH]3)nc(N3CCOCC3)nc12` [Example 30, 2-(morpholin-4-yl)-N-[(5-phenyl-1H-imidazol-2-yl)methyl]-8-(propan-2-yl)pyrazolo[1,5-a][1,3,5]triazin-4-amine], the IC50 was determined as 2950 nM on CDK12/CycK and 28.5 nM in test [1] (setting [3]).
As to `CN1CCN(c2nc(NCc3nc4c(OC(F)(F)F)cccc4[nH]3)n3ncc(Br)c3n2)CC1` [Example 376, 8-bromo-2-(4-methylpiperazin-1-yl)-N-{[4-(trifluoromethoxy)-1H-benzimidazol-2-yl]methyl}pyrazolo[1,5-a][1,3,5]triazin-4-amine], the IC50 on CDK12/CycK is greater than 20000 nM; in test [2] (Homo sapiens, MDA-MB-231, 96 h), 102 nM.

Values taken from patent publication US20230117034A1, “PYRAZOLOTRIAZINES” (Bayer Aktiengesellschaft, priority 2019, published 2023).
